Measured values taken from US10294202B2, “Pyrrolidinones as herbicides” (FMC Corporation, priority 2013, dated 2019).

Experiments:
Test in all cases: Test C pre-/postemergence herbicide test
[1] = tested on: bromegrass, downy; format: in vivo, Bromus tectorum
Text: (§1) Seeds of plant species selected from blackgrass (Alopecurus myosuroides), ryegrass, Italian (Italian ryegrass, Lolium multiflorum), wheat (winter wheat, Triticum aestivum), galium (catchweed bedstraw, Galium aparine), corn (Zea mays), crabgrass, large (large crabgrass, Digitaria sanguinalis), foxtail, giant (giant foxtail, Setaria faberii), johnsongrass (Sorghum halepense), lambsquarters (Chenopodium album), morningglory (Ipomoea coccinea), nutsedge, yellow (yellow nutsedge, Cyperus esculentus), pigweed (Amaranthus retroflexus), ragweed (common ragweed, Ambrosia elatior), soybean (Glycine max), barnyardgrass (Echinochloa crus-galli), oilseed rape (Brassica napus), waterhemp (common waterhemp, Amaranthus rudis), kochia (Kochia scoparia), oat, wild (wild oat, Avena fatua), surinam grass (Brachiaria decumbens), foxtail, green (green foxtail, Setaria viridis), goosegrass (Eleusine indica), bromegrass, downy (downy bromegrass, Bromus tectorum), nightshade (eastern black nightshade, Solanum ptycanthum), cocklebur (common cocklebur, Xanthium strumarium), cupgrass, woolly (woolly cupgrass, Eriochloa villosa), bermudagrass (Cynodon dactylon), sunflower, (common oilseed sunflower, Helianthus annuus), Russian thistle (Salsola kali) and velvetleaf (Abutilon theophrasti) were planted into a blend of loam soil and sand and treated preemergence with test chemicals formulated in a non-phytotoxic solvent mixture which included a surfactant. At the same time, plants selected from these crop and weed species and also barley (winter barley, Hordeum vulgare), […]), chickweed (common chickweed, Stellaria media), deadnettle (henbit deadnettle, Lamium amplexicaule), and canarygrass (littleseed canarygrass, Phalaris minor) were planted in pots containing Redi-Earth® planting medium (Scotts Company, 14111 Scottslawn Road, Marysville, Ohio 43041) comprising spaghnum peat moss, vermiculite, wetting agent and starter nutrients and treated with postemergence applications of test chemicals formulated in the same manner. Plants ranged in height from 2 to 18 cm (1- to 4-leaf stage) for postemergence treatments. Treated plants and controls were maintained in a greenhouse for 13 to 15 days, after which time all species were compared to controls and visually evaluated. Plant response ratings, summarized in Table C, are based on a scale of 0 to 100 where 0 is no effect and 100 is complete control. A dash (-) response means no test result.

[2] = tested on: sunflower; format: in vivo, Helianthus annuus; details: Preemergence
Text: as §1

[3] = tested on: cocklebur; format: in vivo, Xanthium strumarium
Text: as §1

[4] = tested on: bermudagrass; format: in vivo, Cynodon dactylon
Text: as §1

[5] = tested on: cupgrass, woolly; format: in vivo, Eriochloa villosa
Text: as §1

[6] = tested on: goosegrass; format: in vivo, Eleusine indica
Text: as §1

[7] = tested on: foxtail, green; format: in vivo, Setaria viridis
Text: as §1

[8] = tested on: surinam grass; format: in vivo, Brachiaria decumbens
Text: as §1

[9] = tested on: nightshade; format: in vivo, Solanum ptycanthum; details: Preemergence
Text: as §1

[10] = tested on: Russian thistle; format: in vivo, Salsola kali; details: Preemergence
Text: as §1

[11] = Preemergence, 31 g ai/ha, scale 0 to 100 (0 no effect, 100 complete control)
[12] = Preemergence, 62 g ai/ha, scale 0 to 100
[13] = Preemergence, 125 g ai/ha, scale 0 to 100 (0 no effect, 100 complete control)
[14] = Preemergence, 250 g ai/ha, scale 0 to 100 (0 no effect, 100 complete control)
[15] = 125 g ai/ha, scale 0 to 100 (0 no effect, 100 complete control)
[16] = Postemergence, 31 g ai/ha, scale 0 (no effect) to 100 (complete control)
[17] = Postemergence, 62 g ai/ha, scale 0 to 100 (0 no effect, 100 complete control)
[18] = Postemergence, 125 g ai/ha, scale 0 to 100 (0 no effect, 100 complete control)
[19] = Postemergence, 250 g ai/ha, scale 0 to 100 (0 no effect, 100 complete control)
[20] = Preemergence, 31 g ai/ha, scale 0 to 100, 0 is no effect and 100 is complete control
[21] = 31 g ai/ha, scale 0 to 100, 0 is no effect and 100 is complete control

O=C1NCC(c2cc(F)c(F)c(F)c2)C1C(=O)Nc1ccccc1C(F)(F)F (racemic) [Compound 33]
Bromegrass, Downy plant response rating [1, 11]: 0 | Plant response rating, Bromegrass, Downy [1, 12]: 0 | Plant response rating, Bromegrass, Downy [1, 13]: 0 | Plant response rating, Bromegrass, Downy [1, 14]: 55 | Plant response rating Sunflower ([2]; 62 g ai/ha, scale 0 to 100): 10 | Cocklebur plant response rating [3, 11]: 0 | Plant response rating, Cocklebur [3, 13]: 10 | Plant response rating, Cocklebur [3, 14]: 10 | Bermudagrass plant response rating [4, 11]: 0 | Plant response rating, Bermudagrass [4, 12]: 0 | Plant response rating, Bermudagrass [4, 13]: 70 | Plant response rating, Bermudagrass [4, 14]: 98 | Cupgrass, Woolly plant response rating [5, 11]: 60 | Plant response rating, Cupgrass, Woolly [5, 12]: 85 | Plant response rating, Cupgrass, Woolly [5, 13]: 90 | Plant response rating, Cupgrass, Woolly [5, 14]: 90 | Goosegrass plant response rating [6, 11]: 5 | Plant response rating, Goosegrass [6, 12]: 5 | Plant response rating, Goosegrass [6, 13]: 40 | Foxtail, Green plant response rating [7, 11]: 95 | Plant response rating, Foxtail, Green [7, 12]: 98 | Plant response rating, Foxtail, Green [7, 13]: 100 | Plant response rating, Foxtail, Green [7, 14]: 100 | Plant response rating, Surinam Grass [8, 12]: 80 | Plant response rating, Surinam Grass [8, 13]: 95 | Plant response rating, Nightshade ([9]; 62 g ai/ha, scale 0 to 100): 0 | Plant response rating, Nightshade [9, 15]: 0

O=C1NCC(c2cc(F)c(F)c(F)c2)C1C(=O)Nc1ccccc1F (racemic) [Compound 34]
Plant response rating, Bromegrass, Downy [1, 16]: 0 | Plant response rating, Bromegrass, Downy [1, 17]: 0 | Plant response rating, Bromegrass, Downy [1, 18]: 0 | Plant response rating, Bromegrass, Downy [1, 19]: 0 | Bromegrass, Downy plant response rating [1, 11]: 0 | Plant response rating, Bromegrass, Downy [1, 12]: 0 | Plant response rating, Bromegrass, Downy [1, 13]: 10 | Plant response rating, Bromegrass, Downy [1, 14]: 30 | Plant response rating Sunflower ([2]; 62 g ai/ha, scale 0 to 100): 0 | Plant response rating Sunflower [2, 15]: 0 | Plant response rating, Cocklebur [3, 16]: 0 | Plant response rating, Cocklebur [3, 17]: 5 | Plant response rating, Cocklebur [3, 18]: 5 | Plant response rating, Cocklebur [3, 19]: 25 | Cocklebur plant response rating [3, 11]: 0 | Plant response rating, Cocklebur [3, 12]: 0 | Plant response rating, Cocklebur [3, 13]: 0 | Plant response rating, Cocklebur [3, 14]: 0 | Plant response rating, Bermudagrass [4, 16]: 0 | Plant response rating, Bermudagrass [4, 17]: 0 | Plant response rating, Bermudagrass [4, 18]: 0 | Plant response rating, Bermudagrass [4, 19]: 0 | Bermudagrass plant response rating [4, 11]: 0 | Plant response rating, Bermudagrass [4, 12]: 0 | Plant response rating, Bermudagrass [4, 13]: 0 | Plant response rating, Bermudagrass [4, 14]: 45 | Plant response rating, Cupgrass, Woolly [5, 16]: 0 | Plant response rating, Cupgrass, Woolly [5, 17]: 0 | Plant response rating, Cupgrass, Woolly [5, 18]: 0 | Plant response rating, Cupgrass, Woolly [5, 19]: 30 | Cupgrass, Woolly plant response rating [5, 11]: 50 | Plant response rating, Cupgrass, Woolly [5, 12]: 85 | Plant response rating, Cupgrass, Woolly [5, 13]: 95 | Plant response rating, Cupgrass, Woolly [5, 14]: 95 | Plant response rating, Goosegrass [6, 16]: 10 | Plant response rating, Goosegrass [6, 17]: 15 | Plant response rating, Goosegrass [6, 18]: 15 | Plant response rating, Goosegrass [6, 19]: 25 | Goosegrass plant response rating [6, 11]: 0 | Plant response rating, Goosegrass [6, 12]: 5 | Plant response rating, Goosegrass [6, 13]: 10 | Plant response rating, Foxtail, Green [7, 16]: 0 | Plant response rating, Foxtail, Green [7, 17]: 60 | Plant response rating, Foxtail, Green [7, 18]: 60 | Plant response rating, Foxtail, Green [7, 19]: 60 | Foxtail, Green plant response rating [7, 11]: 98 | Plant response rating, Foxtail, Green [7, 12]: 98 | Plant response rating, Foxtail, Green [7, 13]: 98 | Plant response rating, Foxtail, Green [7, 14]: 100 | Plant response rating, Surinam Grass [8, 16]: 0 | Plant response rating, Surinam Grass [8, 17]: 0 | Plant response rating, Surinam Grass [8, 18]: 55 | Plant response rating, Surinam Grass [8, 19]: 60 | Plant response rating, Surinam Grass [8, 12]: 95 | Plant response rating, Surinam Grass [8, 13]: 100 | Plant response rating, Russian Thistle ([10]; 62 g ai/ha, scale 0 to 100): 0 | Plant response rating, Russian Thistle [10, 15]: 0 | Plant response rating, Nightshade ([9]; 62 g ai/ha, scale 0 to 100): 0 | Plant response rating, Nightshade [9, 15]: 0

Cc1ccccc1NC(=O)C1C(=O)NCC1c1cc(F)c(F)c(F)c1 (racemic) [Compound 35]
Bromegrass, Downy plant response rating [1, 11]: 0 | Plant response rating, Bromegrass, Downy [1, 12]: 0 | Plant response rating, Bromegrass, Downy [1, 13]: 5 | Plant response rating, Bromegrass, Downy [1, 14]: 40 | Plant response rating Sunflower ([2]; 62 g ai/ha, scale 0 to 100): 0 | Plant response rating Sunflower [2, 15]: 10 | Cocklebur plant response rating [3, 11]: 0 | Plant response rating, Cocklebur [3, 12]: 0 | Plant response rating, Cocklebur [3, 13]: 0 | Plant response rating, Cocklebur [3, 14]: 0 | Bermudagrass plant response rating [4, 11]: 0 | Plant response rating, Bermudagrass [4, 12]: 0 | Plant response rating, Bermudagrass [4, 13]: 0 | Plant response rating, Bermudagrass [4, 14]: 75 | Cupgrass, Woolly plant response rating [5, 11]: 55 | Plant response rating, Cupgrass, Woolly [5, 12]: 80 | Plant response rating, Cupgrass, Woolly [5, 13]: 85 | Plant response rating, Cupgrass, Woolly [5, 14]: 90 | Goosegrass plant response rating [6, 11]: 0 | Plant response rating, Goosegrass [6, 12]: 0 | Plant response rating, Goosegrass [6, 13]: 5 | Foxtail, Green plant response rating [7, 11]: 90 | Plant response rating, Foxtail, Green [7, 12]: 98 | Plant response rating, Foxtail, Green [7, 13]: 98 | Plant response rating, Foxtail, Green [7, 14]: 98 | Plant response rating, Surinam Grass [8, 12]: 90 | Plant response rating, Surinam Grass [8, 13]: 100 | Plant response rating, Russian Thistle ([10]; 62 g ai/ha, scale 0 to 100): 0 | Plant response rating, Nightshade ([9]; 62 g ai/ha, scale 0 to 100): 0 | Plant response rating, Nightshade [9, 15]: 0

O=C1NCC(c2ccc(Cl)c(F)c2)C1C(=O)Nc1ccccc1F (stereo not shown) [Compound 53]
Bromegrass, Downy plant response rating [1, 11]: 0 | Plant response rating, Bromegrass, Downy [1, 12]: 0 | Plant response rating, Bromegrass, Downy [1, 13]: 0 | Plant response rating, Bromegrass, Downy [1, 14]: 0 | Plant response rating Sunflower ([2]; 62 g ai/ha, scale 0 to 100): 15 | Plant response rating Sunflower [2, 15]: 20 | Plant response rating, Cocklebur [3, 13]: 5 | Plant response rating, Cocklebur [3, 14]: 5 | Bermudagrass plant response rating [4, 11]: 40 | Plant response rating, Bermudagrass [4, 12]: 40 | Plant response rating, Bermudagrass [4, 13]: 50 | Plant response rating, Bermudagrass [4, 14]: 50 | Cupgrass, Woolly plant response rating [5, 11]: 35 | Plant response rating, Cupgrass, Woolly [5, 12]: 65 | Plant response rating, Cupgrass, Woolly [5, 13]: 80 | Plant response rating, Cupgrass, Woolly [5, 14]: 80 | Goosegrass plant response rating [6, 11]: 0 | Plant response rating, Goosegrass [6, 12]: 10 | Plant response rating, Goosegrass [6, 13]: 30 | Foxtail, Green plant response rating [7, 11]: 30 | Plant response rating, Foxtail, Green [7, 12]: 90 | Plant response rating, Foxtail, Green [7, 13]: 90 | Plant response rating, Foxtail, Green [7, 14]: 90 | Plant response rating, Surinam Grass [8, 12]: 25 | Plant response rating, Surinam Grass [8, 13]: 75 | Plant response rating, Nightshade ([9]; 62 g ai/ha, scale 0 to 100): 0 | Plant response rating, Nightshade [9, 15]: 40

O=C1NCC(c2cccc(OC(F)(F)F)c2)C1C(=O)Nc1cccc(F)c1F (stereo not shown) [Compound 68]
Bromegrass, Downy plant response rating [1, 20]: 0 | Plant response rating, Bromegrass, Downy [1, 12]: 0 | Plant response rating, Bromegrass, Downy [1, 13]: 0 | Plant response rating, Bromegrass, Downy [1, 14]: 0 | Sunflower plant response rating [2, 21]: 0 | Plant response rating Sunflower ([2]; 62 g ai/ha, scale 0 to 100): 0 | Plant response rating Sunflower [2, 15]: 10 | Cocklebur plant response rating [3, 20]: 15 | Bermudagrass plant response rating [4, 20]: 30 | Plant response rating, Bermudagrass [4, 12]: 50 | Plant response rating, Bermudagrass [4, 13]: 85 | Plant response rating, Bermudagrass [4, 14]: 85 | Cupgrass, Woolly plant response rating [5, 20]: 75 | Plant response rating, Cupgrass, Woolly [5, 12]: 75 | Plant response rating, Cupgrass, Woolly [5, 13]: 85 | Plant response rating, Cupgrass, Woolly [5, 14]: 90 | Goosegrass plant response rating [6, 20]: 55 | Plant response rating, Goosegrass [6, 12]: 75 | Plant response rating, Goosegrass [6, 13]: 80 | Foxtail, Green plant response rating [7, 20]: 90 | Plant response rating, Foxtail, Green [7, 12]: 90 | Plant response rating, Foxtail, Green [7, 13]: 95 | Plant response rating, Foxtail, Green [7, 14]: 95 | Surinam Grass plant response rating [8, 20]: 40 | Plant response rating, Surinam Grass [8, 12]: 75 | Plant response rating, Surinam Grass [8, 13]: 75 | Nightshade plant response rating [9, 21]: 10 | Plant response rating, Nightshade ([9]; 62 g ai/ha, scale 0 to 100): 50 | Plant response rating, Nightshade [9, 15]: 55
